Measured values published in patent publication US20070105215A1, “METHOD OF CULTURING STEM CELLS USING ABC TRANSPORTERS” (SAMSUNG ELECTRONICS CO., LTD., priority 2005, published 2007).
Like-named read-outs stand apart in the source and are kept apart here.

What was measured:
[1] = Coculture of A549 and K562 cells treated with Mitoxantrone, viability of K562 cells; format: cell-based; conditions: human, K562 cells cocultured with A549 cells, K562 coculture with A549, Mitoxantrone 0.4 M
[2] = test system: A549 (human lug carcinoma cell ATCC no.CCL-185), having ABC transporters of the ABCG2 family
[3] = Coculture of A549 and K562 cells treated with Mitoxantrone, viability of A549 cells; format: cell-based; conditions: human, A549 cells cocultured with K562 cells, A549 co-cultured with K562, Mitoxantrone 0.4 M
[4] = Cell activity/viability of K562 cells treated with Mitoxantrone (Sulforhodamine B kit), single culture; format: cell-based; conditions: human, K562 cells (no ABC transporter); K562 single culture, Mitoxantrone 0.4 M, incubated for 96 hours
Procedure: (§1) This was performed in the same manner as in Example 1, except that K562 (chronic myelogenous leukemia) cells having no ABC transporter were incubated in place of the A549 cells.
(§2) This was performed in the same manner as in Example 1, except that K562 cells having no ABC transporter were used in place of the A549 cells.

[5] = test system: K562 (chronic myelogenous leukemia) cells having no ABC transporter; test: as above; format: cell-based
Procedure: as §1, §2

SMILES: O=C1c2c(O)ccc(O)c2C(=O)c2c(NCCNCCO)ccc(NCCNCCO)c21 [Mitoxantrone]
- viability at 96 h, 0.4 M [1]: 17%
- cell activity ([2]; A549, Mitoxantrone concentration of 0.4M (FIG. 6)): 98%
- cell activity ([2]; A549, Mitoxantrone concentration of 1.0M (FIG. 6)): 86%
- cell activity ([2]; A549, Mitoxantrone concentration of 2.6 (FIG. 6)): 68%
- viability at 96 h, 0.4 M [3]: 92%
- viability at 96 h, 0.4 M [4]: 28%
- cell activity ([5]; K562, Mitoxantrone concentration of 0.1M (FIG. 6)): about 60%
- cell activity ([5]; K562, Mitoxantrone concentration of 0.2M (FIG. 6)): almost zero
